Reference: patent US12643859B2, “Pyridyl oxycarboxylic acid oxime derivative and preparation method therefor, weeding composition and application thereof” (Qingdao Kingagroot Chemical Compound Co., Ltd., priority 2018, dated 2026)

Tests used:
Format in all cases: in vivo
Cyperus iria = test: Post-emergence test experiment, weed control; details: post-emergence spray, 3 weeks in greenhouse; for Activity level (fresh weight growth inhibition rate), Cyperus iria: 600 g a.i./ha plus water 450 kg/ha
Description: (§1) The above described growth inhibition rate is fresh weight inhibition rate.
(§2) Post-emergence test experiment: Monocotyledonous and dicotyledonous weed seeds and main crop seeds (i. e. wheat, corn, rice, soybean, cotton, oilseed, millet and sorghum.) were put into a plastic pot loaded with soil. Then covered with 0.5-2 cm soil, the seeds were allowed to grow in good greenhouse environment. The test plants were treated at 2-3 leaf stage 2 weeks after sowing. The test compounds of the invention were dissolved with acetone respectively, then added with tween-80, and using 1.5 liters per hectare of an emulsible concentrate of methyl oleate as a synergist, and diluted by certain amount of water to certain concentration. The solution was sprayed to the plants with a sprayer. Then the plants were cultured for 3 weeks in the greenhouse, and the experiment result of weed controlling effect was listed in tables 3-4.

Indica rice = test: Post-emergence test experiment, crop selectivity; details: post-emergence spray, 3 weeks in greenhouse
Description: as §1, §2

Japonica rice = test: Post-emergence test experiment, crop selectivity; details: for Activity level (fresh weight growth inhibition rate), Japonica rice: post-emergence spray, 3 weeks in greenhouse
Description: as §1, §2

[1] = tested on: Monocotyledonous and dicotyledonous weed seeds and main crop seeds; test: Post-emergence test experiment (Table 3, 1000 g a.i./ha); details: 3 weeks in greenhouse, fresh weight inhibition
In short: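 Weeds and crops (wheat, corn, rice, soybean, cotton, oilseed, millet, sorghum) grown in soil in the greenhouse and sprayed post-emergence at 2–3 leaf stage, 2 weeks after sowing. Compound in acetone with tween-80 plus methyl oleate emulsible concentrate (1.5 L/ha) as synergist, diluted in water. Fresh weight inhibition scored after 3 weeks.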

[2] = 600 g a.i./ha plus water 450 kg/ha

Row | SMILES | Activity level (fresh weight growth inhibition rate), Cyperus iria (Cyperus iria) | Activity level (fresh weight growth inhibition rate), Indica rice (Indica rice; [2]) | Activity level (fresh weight growth inhibition rate), Japonica rice (Japonica rice; [2]) | Activity level (growth inhibition rate) Digitaria sanguinalis [1] | Activity level (growth inhibition rate) Echinochloa crusgalli [1] | Activity level (growth inhibition rate) Galium spurium [1] | Activity level (growth inhibition rate) Leptochloa chinensis [1] | Activity level (growth inhibition rate) Monochoria Vaginalis [1] | Activity level (growth inhibition rate) Murdannia triquetra [1] | Activity level (growth inhibition rate) Setaria viridis [1] | inhibition at 300 g/ha (Cyperus iria; Cyperus iria, 504 h, 300 g a.i./ha, read-out: Activity level (fresh weight growth inhibition rate), Cyperus iria) | Activity level (fresh weight growth inhibition rate), Indica rice (Indica rice; 300 g a.i./ha) | Activity level (fresh weight growth inhibition rate), Japonica rice (Japonica rice; 300 g a.i./ha) | Selectivity to / inhibition of rice (in words) (Japonica rice; post-emergence, regardless of japonica or indica rice)
1 | CC(Oc1nc(F)c(Cl)c(N)c1Cl)C(=O)ON=C(C#N)c1ccc(Cl)cc1 (centres unmarked) [Compound 87] | 5 (Level 5: the growth inhibition rate is greater than 85%) | 0 (Level 0: the growth inhibition rate is less than 5%) | 0 (Level 0: the growth inhibition rate is less than 5%) | 5 (Level 5: the growth inhibition rate is greater than 85%) | 5 (Level 5: the growth inhibition rate is greater than 85%) | 5 (Level 5: the growth inhibition rate is greater than 85%) | 5 (Level 5: the growth inhibition rate is greater than 85%) | 5 (Level 5: the growth inhibition rate is greater than 85%) | 5 (Level 5: the growth inhibition rate is greater than 85%) | 5 (Level 5: the growth inhibition rate is greater than 85%) |  |  |  | 
2 | CCC(=NOC(=O)C(C)Oc1nc(F)c(Cl)c(N)c1Cl)C(=O)NCc1ccc(C)cc1 (centres unmarked) [Compound 100] | 5 (Level 5: the growth inhibition rate is greater than 85%) | 0 (Level 0: the growth inhibition rate is less than 5%) | 0 (Level 0: the growth inhibition rate is less than 5%) | 5 (Level 5: the growth inhibition rate is greater than 85%) | 5 (Level 5: the growth inhibition rate is greater than 85%) | 5 (Level 5: the growth inhibition rate is greater than 85%) | 5 (Level 5: the growth inhibition rate is greater than 85%) | 5 (Level 5: the growth inhibition rate is greater than 85%) | 5 (Level 5: the growth inhibition rate is greater than 85%) | 5 (Level 5: the growth inhibition rate is greater than 85%) |  |  |  | 
3 | CC(Oc1nc(F)c(Cl)c(N)c1Cl)C(=O)ON=C(C(=O)NCc1ccco1)c1ccccc1 (centres unmarked) [Compound 104] | 5 (Level 5: the growth inhibition rate is greater than 85%) | 0 (Level 0: the growth inhibition rate is less than 5%) | 0 (Level 0: the growth inhibition rate is less than 5%) | 5 (Level 5: the growth inhibition rate is greater than 85%) | 5 (Level 5: the growth inhibition rate is greater than 85%) | 5 (Level 5: the growth inhibition rate is greater than 85%) | 5 (Level 5: the growth inhibition rate is greater than 85%) | 5 (Level 5: the growth inhibition rate is greater than 85%) | 5 (Level 5: the growth inhibition rate is greater than 85%) | 5 (Level 5: the growth inhibition rate is greater than 85%) |  |  |  | 
4 | CCCC(Cl)=NOC(=O)C(C)Oc1nc(F)c(Cl)c(N)c1Cl (centres unmarked) [Compound 75] | 5 (Level 5: the growth inhibition rate is greater than 85%) | 0 (Level 0: the growth inhibition rate is less than 5%) | 0 (Level 0: the growth inhibition rate is less than 5%) | 5 (Level 5: the growth inhibition rate is greater than 85%) | 5 (Level 5: the growth inhibition rate is greater than 85%) | 5 (Level 5: the growth inhibition rate is greater than 85%) | 5 (Level 5: the growth inhibition rate is greater than 85%) | 5 (Level 5: the growth inhibition rate is greater than 85%) | 5 (Level 5: the growth inhibition rate is greater than 85%) | 5 (Level 5: the growth inhibition rate is greater than 85%) |  |  |  | 
5 | CC=COc1ccc(C(=NOC(=O)C(C)Oc2nc(F)c(Cl)c(N)c2Cl)C(=O)OCC)cc1 (centres unmarked) [Compound 92] | 5 (Level 5: the growth inhibition rate is greater than 85%) | 0 (Level 0: the growth inhibition rate is less than 5%) | 0 (Level 0: the growth inhibition rate is less than 5%) | 5 (Level 5: the growth inhibition rate is greater than 85%) | 5 (Level 5: the growth inhibition rate is greater than 85%) | 5 (Level 5: the growth inhibition rate is greater than 85%) | 5 (Level 5: the growth inhibition rate is greater than 85%) | 5 (Level 5: the growth inhibition rate is greater than 85%) | 5 (Level 5: the growth inhibition rate is greater than 85%) | 5 (Level 5: the growth inhibition rate is greater than 85%) |  |  |  | 
6 | CC(Oc1nc(F)c(Cl)c(N)c1Cl)C(=O)O (centres unmarked) [Control compound A, reference compound] | 5 (Level 5: the growth inhibition rate is greater than 85%) | 3 (Level 3: the growth inhibition rate is equal to or greater than 40% and less than 60%) | 3 (Level 3: the growth inhibition rate is equal to or greater than 40% and less than 60%) |  |  |  |  |  |  |  | 60 to 85% | 3 (Level 3: the growth inhibition rate is equal to or greater than 40% and less than 60%) | 2 (Level 2: the growth inhibition rate is equal to or greater than 20% and less than 40%) | great inhibition to rice
7 | CC(Oc1nc(F)c(Cl)c(N)c1Cl)C(=O)ON=C(c1ccc(N(C)C)cc1)[N+](=O)[O-] (centres unmarked) [Compound 90] | 5 (Level 5: the growth inhibition rate is greater than 85%) | 0 (Level 0: the growth inhibition rate is less than 5%) | 0 (Level 0: the growth inhibition rate is less than 5%) | 5 (Level 5: the growth inhibition rate is greater than 85%) | 5 (Level 5: the growth inhibition rate is greater than 85%) | 5 (Level 5: the growth inhibition rate is greater than 85%) | 5 (Level 5: the growth inhibition rate is greater than 85%) | 5 (Level 5: the growth inhibition rate is greater than 85%) | 5 (Level 5: the growth inhibition rate is greater than 85%) | 5 (Level 5: the growth inhibition rate is greater than 85%) |  |  |  | 
8 | CC(Oc1nc(F)c(Cl)c(N)c1Cl)C(=O)ON=C1CCCC1 (centres unmarked) [Compound 117] | 5 (Level 5: the growth inhibition rate is greater than 85%) | 0 (Level 0: the growth inhibition rate is less than 5%) | 0 (Level 0: the growth inhibition rate is less than 5%) | 5 (Level 5: the growth inhibition rate is greater than 85%) | 5 (Level 5: the growth inhibition rate is greater than 85%) | 5 (Level 5: the growth inhibition rate is greater than 85%) | 5 (Level 5: the growth inhibition rate is greater than 85%) | 5 (Level 5: the growth inhibition rate is greater than 85%) | 5 (Level 5: the growth inhibition rate is greater than 85%) | 5 (Level 5: the growth inhibition rate is greater than 85%) |  |  |  | 
